# Measurements as given in US20220260557A1, “METHODS FOR DEPLETION AND ENRICHMENT” (priority 2018, published 2022).
# Where “and” joins values, the source holds several entries; their conditions need not be identical. Identical values can stand only once.
# Key:
# [1] = Serum biotin levels after 20 mg biotin ingestion, free biotin ELISA; settings: per volunteer
# Description: Baseline serum samples were obtained from 5 apparently healthy adult volunteers (4 male, 1 female) by antecubital venous blood draw in BD brand Vacutainer™ 10 mL red top tubes. […] Blood was allowed to clot for 1 hour at RT and centrifuged at 2,000 rpm for 15 min in a Beckman Allegra 6R tabletop centrifuge. For each time point, serum samples from each volunteer was pooled, mixed for 15 min at RT, aliquoted into 1.2 mL aliquots in 2 mL cryo-vials, and frozen at −80° C.
# Samples above the kit's measuring range were diluted with the kit's sample dilution buffer.
# clinical = settings: human, in vivo, serum biotin level, LC-MS/MS
smiles,measurement,setting,value
O=C(O)CCCC[C@@H]1SC[C@@H]2NC(=O)N[C@@H]21 [Biotin],Biotin Concentration 1-hr,[1]; 1 hr after 20 mg biotin ingestion,440 ng/mL
same,Biotin Concentration 3-hr,[1]; 3 hr after 20 mg biotin ingestion,221 ng/mL and 289 ng/mL and 184 ng/mL and 113 ng/mL and 183 ng/mL
same,Biotin Concentration 6-hr,[1]; 6 hr after 20 mg biotin ingestion,60 ng/mL and 65 ng/mL and 76 ng/mL
same,Biotin Concentration 8-hr,[1]; 8 hr after 20 mg biotin ingestion,48 ng/mL and 64 ng/mL and 65 ng/mL
same,Biotin Concentration 24-hr,[1]; 24 hr after 20 mg biotin ingestion,29 ng/mL and 26 ng/mL and 32 ng/mL and 24 ng/mL
same,Biotin Concentration 0-hr,[1]; baseline before 20 mg biotin ingestion,1.1 ng/mL and 0.1 ng/mL and 0.3 ng/mL and 0.4 ng/mL (2×)
same,concentration at 1 h,"[1]; both, human, in vivo, 20 mg, Biotin Concentration 1-hr, 1 hr after 20 mg biotin ingestion",531 ng/mL
same,concentration at 6 h,"[1]; both, human, in vivo, 20 mg, Biotin Concentration 6-hr, 6 hr after 20 mg biotin ingestion",107 ng/mL
same,concentration at 8 h,"[1]; both, human, in vivo, 20 mg, Biotin Concentration 8-hr, 8 hr after 20 mg biotin ingestion",60 to 107 ng/mL
same,concentration at 24 h,"[1]; both, human, in vivo, 20 mg, Biotin Concentration 24-hr, 24 hr after 20 mg biotin ingestion",24 to 32 ng/mL
same,concentration at 6 h,"clinical; 20 mg, all 5 volunteers",17 to 35 ng/mL
same,concentration at 8 h,"clinical; 20 mg, 8 hours, 4 out of 5 volunteers >15 ng/mL",16 to 28 ng/mL
same,concentration at 6 h,"clinical; 200 mg, 200 mg dose (so in the source)",95 to 347 ng/mL
